The values below come from US9839690B2, “Singlet oxygen-labile linkers and methods of production and use thereof” (The Board of Regents of the University of Oklahoma, priority 2012, dated 2017).

The test system of series [1] is MCF-7 cells. Nature of the series: Dark toxicity, MTT (Example 5). It counts as cell-based. Conditions: Homo sapiens, MCF7, 72 h; MCF-7, dark, 3 days; read-out: IC50D (dark toxicity). The procedure:
It seemed that the bulky groups, CMP-L and CMP-NCL, reduced the cytotoxic activity of CA4, presumably through the interference of its binding to tubulin as estimated by the modeling study.
MCF-7 cells were maintained in minimum essential medium (α-MEM) supplemented with 10% bovine growth serum, 2 mM L-glutamine, 50 units/mL penicillin G, 50 μg/mL streptomycin and 1.0 μg/mL fungizone. MCF-7 cells (5,000 cells/well) were seeded on 96-well plates in the medium and then incubated for 24 h at 37° C. in 5% CO2. Stock solutions (2 mM) were prepared in DMSO. The stocks were further diluted with medium to get necessary final concentrations. The diluted solution (10 μL) was then added to each well (190 μL). The plates were incubated for 24 h and then removed from the incubator. For the phototoxicity study: The plate without a cover was placed on an orbital shaker (Lab-line, Barnstead International) and irradiated by using a diode laser (690 nm, 5.6 mW/cm^2) for 30 min. To ensure uniformity of the light during the irradiation, each plate was shaken gently on an orbital shaker. For the dark toxicity study: Plates were kept in the dark for 30 min, and then returned to the incubator. Cell viability was determined after 3 days by using the MTT assay. Briefly, a 10 μL solution of MTT (10 mg in 1 mL PBS buffer) was added to each well and the plate was incubated for 4 h. Then, the MTT solution was removed and the cells were dissolved in 200 μL of DMSO and the absorbance within each well was measured at 570 nm with background subtraction at 650 nm. The cell viability was then quantified by measuring the absorbance of the treated wells compared to that of the untreated wells (controls) and expressed as a percentage.

In a further series the test system is colon 26 cells. Nature of the series: Antitumor efficacy study, s.c. colon 26 tumors. The series is classed as in vivo, BALB/c mice. To be noted: similar dose, pilot studies. How it is done:
The antitumor effects of the prodrugs after irradiation were evaluated by using a mouse tumor model: BALB/c mice having s.c. tumors produced by injection of colon 26 cells. After 1.5 h-post i.p. injection of prodrugs, each tumor was irradiated by 690 nm diode laser (360 J/cm^2=200 mW/cm^2 for 30 min) on days 0, 1 and 2. The treatment conditions were determined from pilot studies although those conditions might not have been the optimal conditions.
Four- to six-week-old BALB/c mice (18-20 g, Charles River Laboratories, Inc.) were used for the murine tumor model. The mice were implanted s.c. with 2×10^6 colon 26 cells in PBS (100 μL) on the lower back-neck region. Tumor growth was monitored with digital caliper. Two dimensions l and w (l: the longest axis of tumor and w: the axis perpendicular to l) were used to calculate tumor volume (lw^2/2). Mice with a tumor of the diameter 3-5 mm were used for the experiments.
Samples were filtered using 0.2 μm sterile syringe filter. To each mouse, 200 μL of sample was injected via i.p. once a day on day 0, 1, and 2. Then, 1 h 30 min later mice were anesthetized with ketamine 80 mgkg^−1 and xylazine 6 mgkg^−1, i.p. injection. Tumors were irradiated with a 690 nm diode laser at 200 mW/cm^2 for 30 min (360 J/cm^2). Tumor size was measured with the digital caliper every day after the treatment.

A short description of series [2]: 1H-NMR of drugs and model linker compound with CMP-OMe before and after irradiation. The series is classed as physicochemical. To be noted: for Oxidation under the irradiation condition: 1H-NMR. An excerpt: The cleavage of aminoacrylate linkers after irradiation was supported by the increased coumarin fluorescence of 9 by irradiation (FIGS. 14-21). The unique peak of each compound was integrated against the peak of CMP-OMe (four protons of CMP-OMe at 9.7 ppm, FIG. 14), which was known to be inert to singlet oxygen oxidation. […] However, we observed 77% decrease of the proton peak of the aminoacrylate linker after the irradiation (FIG. 21). […] PD 9 had negligible coumarin emission compared to that of free coumarin at the equimolar concentration. In the presence of 10 μM of 9, MCF-7 cells were incubated for 24 h to activate dPS. Then, the samples were irradiated by visible light (540±10 nm, 8 mW/cm^2, 30 min). […] The released free coumarin was also detected and quantified by HPLC based on the standard curve of free coumarin. As such, almost 99% of 9 released coumarin while only 64% of dPS of 9 were activated when irradiated.

In series [3] the test system is MCF-7 cells. Briefly: Dark toxicity, MTT cell viability (Example 4). It counts as cell-based. Conditions: MCF-7, 96 hr, no irradiation. How it is done:
MCF-7 cells (5,000 cells/well) were seeded in 96 well plates. After the plates were incubated for 24 hr, the culture medium was aspirated and the cells were washed with cold PBS (100 μL) once. Then, prodrug in the 200 μL culture media was added to cells. The final concentrations ranging from 1 nM to 1 μM were used to perform concentration dependent cell viability and 25 nM prodrug was used to perform time dependent drug release study. After 96 hr incubation, the cell viability was determined by MTT assay detailed below. The experiments were performed in triplicate. IC50 values were calculated with GraphPad Prism 5.
Cell viability was assessed by MIT assay.^89 In brief, after thoroughly washing the cells 2× with PBS buffer, the cells were treated with 200 μL 0.5 mg/mL MIT (3-(4,5-dimethylthiazol-2-yl)-2,5-diphenyltetrazolium bromide, a yellow tetrazole). Subsequently, the cells were incubated at 37° C. under a humidified atmosphere of 5% CO2 for 4 h. After 4 h of incubation, the solution from each well was taken out, and washed with PBS one time and added 100 μL DMSO. The plates were shaken at room temperature for 10 min and read immediately at 570 nm on a microplate reader (Spectra max, Molecular devices). Cell viability (%) was expressed as a ratio of treated cells to control cells.

A further series deals with T1, tubulin (Sus scrofa, UniProt P02554).
T1 construct: purchased Cytoskeleton, Inc. BK011P
T1 sequence (P02554 whole entry): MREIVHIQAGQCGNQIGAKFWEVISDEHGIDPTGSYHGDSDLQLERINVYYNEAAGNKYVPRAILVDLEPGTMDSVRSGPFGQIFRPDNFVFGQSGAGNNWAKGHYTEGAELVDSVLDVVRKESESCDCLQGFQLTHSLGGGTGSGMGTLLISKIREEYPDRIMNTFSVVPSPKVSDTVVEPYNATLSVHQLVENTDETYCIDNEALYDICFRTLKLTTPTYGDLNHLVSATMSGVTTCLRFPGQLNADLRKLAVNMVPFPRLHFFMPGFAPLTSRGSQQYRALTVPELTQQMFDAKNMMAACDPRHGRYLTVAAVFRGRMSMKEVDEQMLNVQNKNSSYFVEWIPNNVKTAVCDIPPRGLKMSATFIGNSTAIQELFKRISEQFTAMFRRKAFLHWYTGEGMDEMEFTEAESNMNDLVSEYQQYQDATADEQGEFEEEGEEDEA
T1 sequence (P02550 whole entry partner): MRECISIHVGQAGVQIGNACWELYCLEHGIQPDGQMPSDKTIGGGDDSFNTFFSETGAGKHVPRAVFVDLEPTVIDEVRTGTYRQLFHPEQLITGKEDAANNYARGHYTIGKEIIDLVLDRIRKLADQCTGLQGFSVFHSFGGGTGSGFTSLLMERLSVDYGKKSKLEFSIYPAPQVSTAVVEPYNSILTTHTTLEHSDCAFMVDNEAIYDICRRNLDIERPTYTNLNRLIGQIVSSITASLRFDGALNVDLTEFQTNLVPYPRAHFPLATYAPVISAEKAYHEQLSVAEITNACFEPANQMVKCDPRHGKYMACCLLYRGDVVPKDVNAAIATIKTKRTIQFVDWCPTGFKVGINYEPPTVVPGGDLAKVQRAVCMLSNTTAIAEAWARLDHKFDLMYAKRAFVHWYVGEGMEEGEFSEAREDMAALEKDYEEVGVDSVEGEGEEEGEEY
Nature of the series: Fluorescence-based tubulin polymerization assay. It counts as biochemical. The procedure:
Paclitaxel and CA4 were used as positive control drugs (a polymerization enhancer and an inhibitor, respectively) in addition to the negative control group (FIG. 32).
The fluorescence-based tubulin polymerization was determined by using a kit supplied by Cytoskeleton, Inc. (cat #=BK011P). Its basic principle is that the fluorescence reporter increases as it is incorporated into microtubules during the course of polymerization. The assay was performed following the experimental procedure as described in version 2.1 of the tubulin polymerization assay kit manual. Briefly, the test drug (final concentration=3 μM) was added to a mixture of tubulin and GTP in a buffer solution, and the reaction mixture was incubated at 37° C. Fluorescence was monitored (excitation=360 nm and emission=450 nm) by using a fluorescence plate reader (SpectraMax Gemini EM, Molecular device). Paclitaxel and CA4 were included in the assay as positive controls in addition to the negative control (vehicle only).

A short description of series [4]: Photooxygenation kinetics (DPBF fluorescence, Rose Bengal, Stern-Volmer analysis). The series is classed as physicochemical. Conditions: acetone, 15° C., 540±10 nm. The procedure:
Fluorescence emission was used to monitor the disappearance of 1,3-diphenylisobenzofuran (DPBF) which was recorded on a LS 50 B luminescence spectrometer (Perkin Elmer, USA). DPBF (5×10^−2 M) and Rose Bengal (0.5×10^−5 M) stock solution in dry acetone was prepared. In addition, varying known concentrations of 2,3-dimethylbutene, (E)-N-phenyl-3-(piperidin-1-yl)acrylamide (a model compound with aminoacrylate linker) and Combretastatin A-4 (CA-4) were freshly prepared. Using a tungsten-halogen light source filtered at 540±10 nm (Lumacare), the appropriate solution of DPBF-Rose Bengal with or without a substrate placed in a fluorescence cuvette and held in a thermostated cell at 15° C. with stirring was irradiated with 0.1 mW/cm^2 light intensity at 30 sec interval. The fluorescence intensity of DPBF at 455 nm as a function of time provided the rate of photooxygenation of DPBF. […] As such, the reaction kinetics could be determined in light of the following analysis.
Using the above kinetic analysis and equation (5), the second order rate constant (k) of the aminoacrylate linker was experimentally determined to be 2.5×10^7 M^−1s^−1, wherein k=kr+kq
Then, β value was calculated from the plot of S0/Sx vs. [A]. […] From the kd value of the solvent (kd of acetone=38,400 s^−1), β value of A was calculated. […]

The conditions of series [5]: literature (ref 79); cited from earlier work.

One may read the inhibition as the change of the read-out against control, counted positive when it falls. With `COc1ccc(/C=C\c2cc(OC)c(OC)c(OC)c2)cc1O` [CA-4, Combretastatin A-4], the IC50 with MCF-7 cells [1] came to 9 nM; in the series with MCF-7 cells [3] (Homo sapiens, MCF7, light or radiation study), 8 nM. In addition, the “Significant tumor growth delay by CA4 itself” value in the series with colon 26 cells is recorded as “not seen”. Besides, the “Oxidation under the irradiation condition” value in series [2] was “not oxidized at all”. Also, the “Pattern of kinetic trace of tubulin polymerization” value on tubulin (3 μM) is recorded as “inhibitor”. For the same compound, the inhibition at 3 µM at tubulin (read-out: Inhibition of tubulin polymerization) amounted to 100%.

As to `O=C(/C=C/N1CCCCC1)Nc1ccccc1` [Compound 9 (Example 3), (E)-N-Phenyl-3-(piperidin-1-yl)acrylamide], the “Second order rate constant (k = kr+kq) with singlet oxygen” value in series [4] stood at 2.5e+07 M⁻¹ s⁻¹. Besides, in series [2] (CDCl3, 1H-NMR), the “Decrease of the proton peak after irradiation” value came to 77%.

With `CCc1c2c(nc3ccc(O)cc13)-c1cc3c(c(=O)n1C2)COC(=O)[C@]3(O)CC` [SN-38], the “Oxidation under the irradiation condition” value in series [2] was “not oxidized at all”. In addition, in the series on MCF-7 cells [3], the IC50 turned out to be 170 nM. In series [5], the “Times more active than irinotecan” value is given as “at least 1000 times”.
